We go through 40 compounds from PubChem BioAssay AID1996.

Converted amounts (≈) assume the structure as drawn.

For this data set the following is noted: buffer; pH 7.4; 200.0 µM.
A word on the solubility (kinetic): it is the concentration staying in solution when a stock, usually in DMSO, is diluted into the medium. Regarding `CCc1ccc(Nc2ccc(C(=O)O)cc2[N+](=O)[O-])cc1`, the kinetic solubility is over 42.9 µg/mL.

`COc1ccc(/C=C(\C#N)C(=O)OCC(=O)NC2CC2)cc1` showed a solubility (kinetic) of 10.1 µg/mL (≈ 33.6 µM).

In turn, `CC1CCC2(CC1)NC(=O)N(CC(=O)Nc1cccc(S(=O)(=O)N3CCCCC3)c1)C2=O` (stereo not given) had a solubility (kinetic) of 2.2 µg/mL (≈ 4.76 µM). This solubility kinetic lies about 4.6-fold lower than the previous one.

`Cn1cc(S(=O)(=O)NCCc2ccccc2)c(=O)n(C)c1=O`: the solubility (kinetic) was over 48.5 µg/mL.

On to `CC(=O)c1ccc(NC(=O)c2cc(=O)[nH]c3ccccc23)cc1`, for which the kinetic solubility came to 2 µg/mL (≈ 6.53 µM).

Take `CC(=O)Nc1ccc(S(=O)(=O)NCCCN2CCOCC2)cc1`: the kinetic solubility is 46.3 µg/mL (≈ 136 µM).

Compound `Cc1cc(C)c(NC(=O)C2CC(=O)N(C3CCCC3)C2)c(C)c1` (stereo not given) showed a solubility (kinetic) of over 47.2 µg/mL.

As for `O=C1CSC(c2cccnc2)N1Cc1ccc(Cl)cc1Cl` (stereo not given), the solubility (kinetic) is over 50.9 µg/mL.

In turn, `COc1ccc(Cl)cc1C(=O)NCc1ccc2c(c1)OCO2` gave a kinetic solubility of 34.3 µg/mL (≈ 107 µM).

`CCOc1ccc(C(CC(=O)O)NC(=O)C(CC)c2ccccc2)cc1` (stereo not given) came in with a solubility (kinetic) of 47.9 µg/mL (≈ 135 µM).

For the compound `COC(=O)c1c(NC(=O)C2=COCCO2)sc(C)c1C`, the solubility (kinetic) came out at 0.7 µg/mL (≈ 2.35 µM).

On to `Cc1ccc2nc(NC(=O)COC(=O)c3cccnc3)sc2c1`, for which the solubility (kinetic) was 7.5 µg/mL (≈ 22.9 µM). Compared with the last compound, the solubility kinetic is about 11-fold higher.

`CC1COc2ccccc2N1C(=O)c1ccc(Cl)cc1` (stereo not given) yielded a solubility (kinetic) of 31.3 µg/mL (≈ 109 µM).

Consider `CCCCNC(=S)N1CCC(Cc2ccccc2)CC1`, for which the kinetic solubility turned out to be 6.2 µg/mL (≈ 21.3 µM).

`Cc1nc(CC(=O)c2ccc(O)c(C)c2O)cs1` yielded a solubility (kinetic) of 36.7 µg/mL (≈ 139 µM).

In turn, `O=[N+]([O-])c1ccc(OCCCOc2cccc3cccnc23)cc1` displayed a solubility (kinetic) of 0.6 µg/mL (≈ 1.85 µM). This solubility kinetic is about 61-fold lower than that of the compound before.

In the case of `O=C(O)CCC(=O)Nc1ccc(OCC2CCCO2)cc1` (stereo not given), the solubility (kinetic) was 43.8 µg/mL (≈ 149 µM).

`Cc1ccc(C(=O)NCCc2c[nH]c3ccccc23)c(C)c1` displayed a solubility (kinetic) of 23 µg/mL (≈ 78.7 µM).

As to `CCOC(=O)c1cc(C)nc(N2CCCCC2)c1C#N`, the solubility (kinetic) is 11.5 µg/mL (≈ 42.1 µM).

Compound `OC(CN1CCCC(C(F)(F)F)C1)c1ccccc1` (stereo not given) showed a solubility (kinetic) of 31.1 µg/mL (≈ 114 µM). Compared with the last compound, the solubility kinetic is about 2.7-fold higher.

`CN(CCN1CCOCC1)Cc1nc(-c2cccs2)no1`: the kinetic solubility was 44.5 µg/mL (≈ 144 µM).

`O=C(COC(=O)c1ccc(Cl)nc1)NC1CCCc2ccccc21` (stereo not given) registered a kinetic solubility of 36.1 µg/mL (≈ 105 µM).

The compound `Cc1ccccc1NCc1ccc([N+](=O)[O-])s1` had a kinetic solubility of 13.7 µg/mL (≈ 55.2 µM).

For the compound `N#Cc1ccccc1NC(=S)NC(=O)C1CCC1`, the solubility (kinetic) was over 38.9 µg/mL.

`Cc1ccc(NC(=O)/C=C2\NC(=O)CS2)cc1` showed a kinetic solubility of 4.1 µg/mL (≈ 16.5 µM).

`Cc1cc(S(=O)(=O)NCCCN2CCOCC2)c(Cl)cc1Cl`: the solubility (kinetic) is 42.6 µg/mL (≈ 116 µM).

Regarding `O=[N+]([O-])c1ccc(-c2ccc(/C=N/O)o2)cc1`, the kinetic solubility came out at 8 µg/mL (≈ 34.5 µM).

`CC1(c2ccccc2)NC(=O)N(CC(=O)N2CCN(S(=O)(=O)c3c(F)cccc3F)CC2)C1=O` (stereo not given) yielded a kinetic solubility of 25 µg/mL (≈ 50.8 µM).

Compound `CCCn1c(N)c(C(=O)CN2CCN(S(=O)(=O)c3cccc(Cl)c3)CC2)c(=O)[nH]c1=O` showed a kinetic solubility of over 70.5 µg/mL.

`CC(C)C(OC(=O)c1nsc(Cl)c1Cl)C(=O)NCc1ccccc1` (stereo not given) registered a solubility (kinetic) of 10 µg/mL (≈ 25.8 µM).

`O=C(Nc1nc2ccccc2s1)c1c(F)cccc1Cl` gave a kinetic solubility of 0.6 µg/mL (≈ 1.96 µM).

`O=C(O)/C=C/C(=O)c1c(-c2ccccc2)[nH]c2ccccc12` had a kinetic solubility of over 43.7 µg/mL.

Take `Cc1ccc(C)c(C(=O)N2CCN(c3ncccn3)CC2)c1`: the kinetic solubility is over 44.5 µg/mL.

Consider `Cc1cc2c(c(=O)o1)C(c1ccc([N+](=O)[O-])o1)C(C#N)=C(N)O2` (stereo not given), for which the solubility (kinetic) was over 47.3 µg/mL.

`O=C(Cc1ccccc1)NCc1cccnc1` gave a solubility (kinetic) of 33.8 µg/mL (≈ 149 µM).

`O=C(O)C1CCN(C(=O)CCc2ccccc2)CC1` returned a solubility (kinetic) of over 39.2 µg/mL.

As for `COc1cccc(NC(=O)NC2CCCCCCC2)c1`, the solubility (kinetic) came to 5.2 µg/mL (≈ 18.8 µM).

For the compound `Cc1cc(=O)[nH]c(SCC(=O)Nc2ccc(F)c([N+](=O)[O-])c2)n1`, the kinetic solubility was over 50.7 µg/mL.

`O=C(c1ccc([N+](=O)[O-])cc1[N+](=O)[O-])N1CCc2ccccc21` returned a solubility (kinetic) of 4.2 µg/mL (≈ 13.4 µM).

In turn, `CC(=O)N1CCN(CC(C)(C)NS(=O)(=O)c2ccccc2)CC1` registered a solubility (kinetic) of over 50.9 µg/mL.
